Results reported in paper PMC10296415, “Methyl-Thiol-Bridged Oxadiazole and Triazole Heterocycles as Inhibitors of NF-κB in Chronic Myelogenous Leukemia Cells” (Biomedicines, 2023).

Key:
[1] = tested on: MCF-7 cell line; assay: MTT cell viability assay, MCF-7; format: cell-based
Method: MCF-7 cells were purchased from Procell Life Science and Technology Co., Ltd., Wuhan, China, and cultured in MEM or Leibovitz’s L-15 medium containing 2% FBS. MCF-7 cells were maintained in a 5% CO2-humidified atmosphere at 37 °C. KCL22, LAMA84, and K562 cells were obtained from the American Type Culture Collection (Manassas, VA, USA). The KBM5 cell line was previously provided by Dr. Bharat Aggarwal (University of Texas M.D. Anderson Cancer Center, Houston, TX, USA). KBM5 cells were cultured in IMDM medium with 10% inactivated FBS and 1% penicillin-streptomycin. KCL22, LAMA84, and K562 cells were cultured in RPMI with 10% FBS and 1% penicillin-streptomycin antibiotics and maintained at 37 °C in a 5% CO2 chamber.
(§1) Cells (1 × 10^4 cells/well) were seeded on a 96-well plate and treated with 4c (0, 5, 10, 15, 30, 50 µM) for 24 h. After 24 h of treatment, 30 µL of MTT solution (2 mg/mL) for 2 h, followed by MTT lysis overnight. Cell viability was analyzed by measuring the absorbance of lysed MTT crystals using VARIOSKAN LUX (Thermo Fisher Scientific Inc., Waltham, MA, USA) at 570 nm.

[2] = tested on: MCF-10A cells; assay: Cytotoxicity assay, MCF-10A; format: cell-based; details: normal mammary epithelial cells
Method: as §1

[3] = DFT frontier molecular orbital calculations
Method: Computational DFT studies for the molecules were performed using Gaussian09 [35]. The molecule was built and visualized by the Gaussview 5 program package. The molecular geometry of the molecules was optimized at the B3LYP level with a 6-311++G (d,p) basis set.
FMO analysis of compound 4c was performed using the B3LYP method with a 6-311 (2d, p) basis set. The HOMO of a molecule represents the site where the electron density is highest and is involved in electron donation, whereas the LUMO represents the site where the electron density is lowest and is involved in electron acceptance. The ELUMO-EHOMO energy gap is directly related to the molecule’s chemical reactivity and kinetic stability. The molecule has a smaller energy gap, which is attributed to less stability and more reactivity. In contrast, the molecule has a large energy gap, attributed to being less chemically reactive and having high chemical stability with greater hardness. […] It is observed that the HOMO-LUMO energy gap of 4l decreased by 1.24 eV and 1.04 eV in alpha and beta orbitals, respectively, when compared with the 4c molecule. […] In contrast, LUMO orbitals were localized on dichlorophenyl, triazole groups, and sulphur atoms of the lead molecule 4c. The chemical potential values for 4c and 4i were estimated to be −4.23 eV and −3.91 eV, respectively, and reflects their significant electron-accepting capacity. […]

[4] = Homo sapiens, MCF7, viability of MCF-7 cell line

SMILES	IC50 [1, 4] [µM]	melting point [°C]	also measured
COc1ccc(Cc2nnc(SCc3cn(-c4ccc(Cl)cc4)nn3)o2)cc1 [Compound 4a, 2-(((1-(4-Chlorophenyl)-1H-1,2,3-triazol-4-yl)methyl)thio)-5-(4-methoxybenzyl)-1,3,4-oxadiazole]	9.58 ± 0.98	92 to 94	IC50 ([2]; Homo sapiens, MCF-10A): > 100 µM
COc1ccc(Cc2nnc(SCc3cn(-c4ccc(Br)cc4)nn3)o2)cc1 [Compound 4b, 2-(((1-(4-Bromophenyl)-1H-1,2,3-triazol-4-yl)methyl)thio)-5-(4-methoxybenzyl)-1,3,4-oxadia-zole]			IC50 ([1]; viability of MCF-7 cell line): 8.44 ± 0.93 µM; IC50 [2]: > 100 µM
COc1ccc(Cc2nnc(SCc3cn(-c4ccccc4)nn3)o2)cc1 [Compound 4d, 2-(4-Methoxybenzyl)-5-(((1-phenyl-1H-1,2,3-triazol-4-yl)methyl)thio)-1,3,4-oxadiazole]	25.8 ± 1.41	60 to 62	
COc1ccc(Cc2nnc(SCc3cn(-c4cccc(Cl)c4)nn3)o2)cc1 [Compound 4e, 2-(((1-(3-Chlorophenyl)-1H-1,2,3-triazol-4-yl)methyl)thio)-5-(4-methoxybenzyl)-1,3,4-oxadiazole]	9 to 16	94 to 96	IC50 ([1]; viability of MCF-7 cell line): 16.9 ± 1.23 µM; IC50 ([2]; Homo sapiens, MCF-10A): > 100 µM
COc1ccc(Cc2nnc(SCc3cn(-c4ccc(OC)cc4)nn3)o2)cc1 [Compound 4f, 2-(4-Methoxybenzyl)-5-(((1-(4-methoxyphenyl)-1H-1,2,3-triazol-4-yl)methyl)thio)-1,3,4-oxadiazole]	34.5 ± 1.54	90 to 92	
COc1ccc(Cc2nnc(SCc3cn(-c4ccc(O)cc4)nn3)o2)cc1 [Compound 4g, 4-(4-(((5-(4-Methoxybenzyl)-1,3,4-oxadiazol-2-yl)thio)methyl)-1H-1,2,3-triazol-1-yl)phenol]	29.7 ± 1.47	94 to 96	
COc1ccc(Cc2nnc(SCc3cn(-c4ccccc4C)nn3)o2)cc1 [Compound 4h, 2-(4-Methoxybenzyl)-5-(((1-(o-tolyl)-1H-1,2,3-triazol-4-yl)methyl)thio)-1,3,4-oxadiazole]	26.2 ± 1.42		
COc1ccc(Cc2nnc(SCc3cn(-c4ccc(C)cc4)nn3)o2)cc1 [Compound 4i, 2-(4-Methoxybenzyl)-5-(((1-(p-tolyl)-1H-1,2,3-triazol-4-yl)methyl)thio)-1,3,4-oxadiazole]	45.4 ± 1.66	104 to 106	
COc1ccc(Cc2nnc(SCc3cn(-c4ccc(Cl)cc4)nn3)o2)cc1OC [Compound 4j, 2-(((1-(4-Chlorophenyl)-1H-1,2,3-triazol-4-yl)methyl)thio)-5-(3,4-dimethoxybenzyl)-1,3,4-oxadiazole]	40.5 ± 1.61	72 to 74	
COc1ccc(Cc2nnc(SCc3cn(-c4ccc(Br)cc4)nn3)o2)cc1OC [Compound 4k, 2-(((1-(4-Bromophenyl)-1H-1,2,3-triazol-4-yl)methyl)thio)-5-(3,4-dimethoxybenzyl)-1,3,4-oxadiazole]	31.9 ± 1.5	98 to 100	
COc1ccc(Cc2nnc(SCc3cn(-c4ccc(Cl)c(Cl)c4)nn3)o2)cc1OC [Compound 4l, 2-(((1-(3,4-Dichlorophenyl)-1H-1,2,3-triazol-4-yl)methyl)thio)-5-(3,4-dimethoxybenzyl)-1,3,4-oxadiazole]	23.8 ± 1.38	102 to 104	decrease of HOMO-LUMO energy gap compared with the 4c molecule ([3]; alpha orbitals): 1.24 eV; decrease of HOMO-LUMO energy gap compared with the 4c molecule ([3]; beta orbitals): 1.04 eV
COc1ccc(Cc2nnc(SCc3cn(-c4ccccc4)nn3)o2)cc1OC [Compound 4m, 2-(3,4-Dimethoxybenzyl)-5-(((1-phenyl-1H-1,2,3-triazol-4-yl)methyl)thio)-1,3,4-oxadiazole]	28.3 ± 1.45	46 to 48	
COc1ccc(Cc2nnc(SCc3cn(-c4cccc(Cl)c4)nn3)o2)cc1OC [Compound 4n, 2-(((1-(3-Chlorophenyl)-1H-1,2,3-triazol-4-yl)methyl)thio)-5-(3,4-dimethoxybenzyl)-1,3,4-oxadiazole]	23.2 ± 1.37	70 to 72	
COc1ccc(-n2cc(CSc3nnc(Cc4ccc(OC)c(OC)c4)o3)nn2)cc1 [Compound 4o, 2-(3,4-Dimethoxybenzyl)-5-(((1-(4-methoxyphenyl)-1H-1,2,3-triazol-4-yl)methyl)thio)-1,3,4-oxadiazole]	35.8 ± 1.55	76 to 78	
COc1ccc(Cc2nnc(SCc3cn(-c4ccccc4O)nn3)o2)cc1OC [Compound 4p, 2-(4-(((5-(3,4-Dimethoxybenzyl)-1,3,4-oxadiazol-2-yl)thio)methyl)-1H-1,2,3-triazol-1-yl)phenol]	65 ± 1.81	122 to 124	
COc1ccc(Cc2nnc(SCc3cn(-c4ccc(C)cc4)nn3)o2)cc1OC [Compound 4q, 2-(3,4-Dimethoxybenzyl)-5-(((1-(p-tolyl)-1H-1,2,3-triazol-4-yl)methyl)thio)-1,3,4-oxadia-zole]			IC50 ([1]; viability of MCF-7 cell line): 19.7 ± 1.3 µM; IC50 [2]: > 100 µM
COc1ccc(Cc2nnc(SCc3cn(-c4ccccc4C)nn3)o2)cc1OC [Compound 4r, 2-(3,4-Dimethoxybenzyl)-5-(((1-(o-tolyl)-1H-1,2,3-triazol-4-yl)methyl)thio)-1,3,4-oxadia-zole]			IC50 ([1]; viability of MCF-7 cell line): 35.7 ± 1.55 µM
COc1cccc2c1C(=O)c1c(O)c3c(c(O)c1C2=O)C[C@@](O)(C(=O)CO)C[C@@H]3O[C@H]1C[C@H](N)[C@H](O)[C@H](C)O1 [Doxorubicin, reference compound]	0.91 ± 0.04		
